Laboratory results: paper PMC10224329, “Design, Synthesis, and Antiproliferative Activity of Benzopyran-4-One-Isoxazole Hybrid Compounds” (Molecules, 2023)
“Also recorded” adds a separate entry of the source.

Columns and labels:
ABL1 = biological target: T1, ABL1 (Homo sapiens, UniProt P00519); assay: Protein kinase assay (Reaction Biology); format: biochemical; conditions: duplicate, 200 μM ATP, read-out: % Enzyme Activity (Relative to DMSO Controls) ABL1
T1 construct: purchased Reaction Biology Corporation
Description: (§1) Therefore, selected compound 5a was screened against several protein kinases to explore the potential of these hybrid compounds as kinase inhibitors. The screening of compound 5a was performed on a panel of 9 kinases, viz., ABL1, c-Kit, c-Src, CDK2/cyclin A1, CSK, EGFR, mTOR/FRAP1, p38a/MAPK14, PKCa, and PI3K, at a dose of 20 μM. The respective positive controls were used for each kinase, and the kinase reaction was performed at 200 μM ATP concentration for all the kinases except for PI3K, which was performed at 10 µM ATP (Table 2). […] It appeared that compound 5a containing a 3-position substitution with an isoxazole ring and a 4-position with a carbonyl group has a detrimental effect on kinase inhibition. Previously 3-substituted benzopyran compound with a short alkyl chain of urea (NH-CO-NH-Et/Me/iPr) was reported with Abl kinase inhibitory activity in the range of 4–27 μM [36]. […] Due to prominent antiproliferative activity, these compounds may have some other targets for anticancer activity.
(§2) Compound 5a was tested at a single dose of 20 μM against 9 kinases, viz., Abl1, c-Kit, c-Src, CDK2/cyclin A1, CSK, EGFR, mTOR/FRAP1, p38a/MAPK14, PKCa, and PI3K using our previously reported protocol in duplicate by Reaction Biology Corporation. The respective positive controls, e.g., staurosporine for all the kinases, except SB202190 for P38a/MAP14 and P1-103 for mTOR/FRAP1, were used, and the kinase reaction was performed at 200 μM ATP concentration for all the kinases except for PI3K, which was performed at 10 µM ATP.

CDK2/cyclin A1 = biological target: T2, CDK2/cyclin A1 (Homo sapiens, UniProt P24941); assay: Protein kinase assay (Reaction Biology); format: biochemical; conditions: duplicate, 200 μM ATP, read-out: % Enzyme Activity (Relative to DMSO Controls) CDK2/cyclin A1
T2 construct: purchased Reaction Biology Corporation
Description: as §1, §2

CSK = biological target: T3, CSK (Homo sapiens, UniProt P41240); assay: Protein kinase assay (Reaction Biology); format: biochemical; conditions: duplicate, 200 μM ATP, read-out: % Enzyme Activity (Relative to DMSO Controls) CSK
T3 construct: purchased Reaction Biology Corporation
Description: as §1, §2

EGFR = biological target: T4, EGFR (Homo sapiens, UniProt P00533); assay: Protein kinase assay (Reaction Biology); format: biochemical; conditions: duplicate, 200 μM ATP, read-out: % Enzyme Activity (Relative to DMSO Controls) EGFR
T4 construct: purchased Reaction Biology Corporation
Description: as §1, §2

PI3K (p110a/p65a) = biological target: T5, PI3K (p110a/p65a) (Homo sapiens, UniProt P42336); assay: Protein kinase assay (Reaction Biology); format: biochemical; conditions: duplicate, 10 µM ATP, read-out: % Enzyme Activity (Relative to DMSO Controls) PI3K (p110a/p65a)
T5 construct: purchased Reaction Biology Corporation
Description: as §1, §2

PKCa = biological target: T6, PKCa (Homo sapiens, UniProt P17252); assay: Protein kinase assay (Reaction Biology); format: biochemical; conditions: duplicate, 200 μM ATP, read-out: % Enzyme Activity (Relative to DMSO Controls) PKCa
T6 construct: purchased Reaction Biology Corporation
Description: as §1, §2

c-Kit = biological target: T7, c-Kit (Homo sapiens, UniProt P10721); assay: Protein kinase assay (Reaction Biology); format: biochemical; conditions: duplicate, 200 μM ATP, read-out: % Enzyme Activity (Relative to DMSO Controls) c-Kit
T7 construct: purchased Reaction Biology Corporation
Description: as §1, §2

c-Src = biological target: T8, c-Src (Homo sapiens, UniProt P12931); assay: Protein kinase assay (Reaction Biology); format: biochemical; conditions: duplicate, 200 μM ATP, read-out: % Enzyme Activity (Relative to DMSO Controls) c-Src
T8 construct: purchased Reaction Biology Corporation
Description: as §1, §2

mTOR/FRAP1 = biological target: T9, mTOR/FRAP1 (Homo sapiens, UniProt P42345); assay: Protein kinase assay (Reaction Biology); format: biochemical; conditions: duplicate, 200 μM ATP, read-out: % Enzyme Activity (Relative to DMSO Controls) mTOR/FRAP1
T9 construct: purchased Reaction Biology Corporation
Description: as §1, §2

p38a/MAPK14 = biological target: T10, p38a/MAPK14 (Homo sapiens, UniProt Q16539); assay: Protein kinase assay (Reaction Biology); format: biochemical; conditions: duplicate, 200 μM ATP, read-out: % Enzyme Activity (Relative to DMSO Controls) p38a/MAPK14
T10 construct: purchased Reaction Biology Corporation
Description: as §1, §2

[1] = test system: ABL1, c-Kit, c-Src, CDK2/cyclin A1, CSK, EGFR, mTOR/FRAP1, p38a/MAPK14, PKCa, and PI3K; assay: Protein kinase panel screen, overall; format: biochemical; conditions: single dose of 20 μM, all kinases screened
Description: as §1
Compound 5a was tested at a single dose of 20 μM against 9 kinases, viz., Abl1, c-Kit, c-Src, CDK2/cyclin A1, CSK, EGFR, mTOR/FRAP1, p38a/MAPK14, PKCa, and PI3K using our previously reported protocol in duplicate by Reaction Biology Corporation. […]

MDA-MB-231 cells = assay: Annexin V-FITC/PI apoptosis assay by flow cytometry; format: cell-based, human
Description: In accordance with the MTS assay, compound 5a had promising antiproliferative action. Therefore, we attempted to study the mechanism triggering cell death. […] MDA-MB-231 cells were treated with 5 μM of compound 5a and Dox (5 μM) as a positive control and incubated for 72 h, then double-stained carefully by membrane-linked protein Annexin-V fluorescein isothiocyanate (FITC) and propidium iodide (PI) for flow cytometry analysis. Normally, in the early stages of apoptosis, phosphatidylserine flips from the inner cell membrane to the surface of the cell membrane. […] PI is a nucleic acid dye that can only cross the membrane of advanced apoptosis and necrotic cells and redden the nucleus. Consequently, when the treated cells are double stained by the two fluorescent dyes, early and late apoptosis and necrotic cells can be clearly distinguished. […] These findings illustrated that compound 5a mainly leads to the early apoptosis of MDA-MB-231 cells.
The assay was detected using a commercially available kit (FITC Annexin V Apoptosis Detection Kit II, BD Biosciences, San Jose, CA, USA) per the manufacturer’s instructions. Briefly, MDA-MB-231 cells were seeded in 6-well plates at a concentration of 1 × 10^6 cells/well for 24 h; after that, cells were treated with 5a (5 µM) for 72 h. Dox (5 µM) was used as a positive control. After the treatment period, cells were washed with cold phosphate-buffered saline (PBS) twice. The cells were collected after trypsin treatment and centrifugated to get a pellet, and a binding buffer (1X) was used to resuspend the cells. Annexin V (5 μL) and propidium iodide (PI) (5 μL) were mixed with 100 μL of the suspended cells (1 × 10^6 cells/mL), followed by 15 min incubation at room temperature in the dark. The mixture was diluted by adding 400 μL of 1× binding buffer, and the cells were analyzed using flow cytometry, FACS Verse (BD Biosciences, USA). The experiment was repeated three times independently.

T7 sequence (P10721 26-976): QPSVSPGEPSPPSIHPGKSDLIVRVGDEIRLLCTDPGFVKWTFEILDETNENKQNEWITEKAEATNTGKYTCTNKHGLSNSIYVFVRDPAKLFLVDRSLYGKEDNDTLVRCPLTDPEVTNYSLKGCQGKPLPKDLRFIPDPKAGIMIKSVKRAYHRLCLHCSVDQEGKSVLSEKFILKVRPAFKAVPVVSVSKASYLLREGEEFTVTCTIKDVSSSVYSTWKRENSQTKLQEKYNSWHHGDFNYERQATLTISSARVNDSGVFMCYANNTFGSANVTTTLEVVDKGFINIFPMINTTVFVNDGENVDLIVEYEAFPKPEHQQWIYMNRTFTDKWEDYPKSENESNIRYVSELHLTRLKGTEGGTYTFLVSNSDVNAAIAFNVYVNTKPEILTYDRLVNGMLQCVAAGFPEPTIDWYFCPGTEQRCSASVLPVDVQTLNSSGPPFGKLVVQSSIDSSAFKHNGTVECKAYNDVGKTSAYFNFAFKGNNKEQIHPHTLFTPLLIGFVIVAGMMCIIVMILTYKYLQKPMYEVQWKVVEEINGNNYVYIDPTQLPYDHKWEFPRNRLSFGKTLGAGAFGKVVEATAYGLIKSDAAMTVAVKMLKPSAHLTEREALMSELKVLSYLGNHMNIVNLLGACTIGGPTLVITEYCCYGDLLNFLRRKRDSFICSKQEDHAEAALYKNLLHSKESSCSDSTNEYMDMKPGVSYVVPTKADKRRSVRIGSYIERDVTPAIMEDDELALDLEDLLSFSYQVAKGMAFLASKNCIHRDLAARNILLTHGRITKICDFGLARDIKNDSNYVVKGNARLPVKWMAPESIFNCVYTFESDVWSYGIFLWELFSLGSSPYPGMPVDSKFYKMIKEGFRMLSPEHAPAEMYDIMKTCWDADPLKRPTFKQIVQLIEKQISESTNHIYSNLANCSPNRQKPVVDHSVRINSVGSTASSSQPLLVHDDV
T4 sequence (P00533 25-1210): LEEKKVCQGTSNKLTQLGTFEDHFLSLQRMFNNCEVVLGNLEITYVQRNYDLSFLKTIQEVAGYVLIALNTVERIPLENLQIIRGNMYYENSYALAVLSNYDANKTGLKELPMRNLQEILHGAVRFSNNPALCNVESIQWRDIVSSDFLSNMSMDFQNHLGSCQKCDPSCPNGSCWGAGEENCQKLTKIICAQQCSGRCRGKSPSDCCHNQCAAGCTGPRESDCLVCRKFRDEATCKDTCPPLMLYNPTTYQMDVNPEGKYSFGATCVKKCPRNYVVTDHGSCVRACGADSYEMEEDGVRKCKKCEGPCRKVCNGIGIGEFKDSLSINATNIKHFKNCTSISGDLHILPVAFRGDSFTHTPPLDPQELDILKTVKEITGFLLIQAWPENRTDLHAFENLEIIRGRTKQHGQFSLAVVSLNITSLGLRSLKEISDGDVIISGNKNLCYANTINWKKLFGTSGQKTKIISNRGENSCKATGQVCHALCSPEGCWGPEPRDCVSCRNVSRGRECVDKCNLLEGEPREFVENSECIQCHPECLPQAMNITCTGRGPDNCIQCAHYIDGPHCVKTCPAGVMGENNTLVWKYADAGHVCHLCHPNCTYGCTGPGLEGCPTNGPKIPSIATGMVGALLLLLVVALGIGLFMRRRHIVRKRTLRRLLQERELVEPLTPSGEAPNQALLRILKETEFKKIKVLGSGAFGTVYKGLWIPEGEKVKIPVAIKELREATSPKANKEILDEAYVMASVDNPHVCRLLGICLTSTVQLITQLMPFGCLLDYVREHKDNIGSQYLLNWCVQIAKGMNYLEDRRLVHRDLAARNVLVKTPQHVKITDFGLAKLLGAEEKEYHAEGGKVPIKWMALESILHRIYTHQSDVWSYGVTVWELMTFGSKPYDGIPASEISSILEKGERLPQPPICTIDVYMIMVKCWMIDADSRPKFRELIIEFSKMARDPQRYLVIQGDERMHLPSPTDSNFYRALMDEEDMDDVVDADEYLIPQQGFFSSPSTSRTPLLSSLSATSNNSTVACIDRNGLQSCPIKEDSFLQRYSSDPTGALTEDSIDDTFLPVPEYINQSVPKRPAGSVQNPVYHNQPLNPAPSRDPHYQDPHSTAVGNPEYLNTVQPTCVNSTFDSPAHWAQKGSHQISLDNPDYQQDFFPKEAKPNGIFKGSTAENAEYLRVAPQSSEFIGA
T10 sequence (Q16539 whole entry): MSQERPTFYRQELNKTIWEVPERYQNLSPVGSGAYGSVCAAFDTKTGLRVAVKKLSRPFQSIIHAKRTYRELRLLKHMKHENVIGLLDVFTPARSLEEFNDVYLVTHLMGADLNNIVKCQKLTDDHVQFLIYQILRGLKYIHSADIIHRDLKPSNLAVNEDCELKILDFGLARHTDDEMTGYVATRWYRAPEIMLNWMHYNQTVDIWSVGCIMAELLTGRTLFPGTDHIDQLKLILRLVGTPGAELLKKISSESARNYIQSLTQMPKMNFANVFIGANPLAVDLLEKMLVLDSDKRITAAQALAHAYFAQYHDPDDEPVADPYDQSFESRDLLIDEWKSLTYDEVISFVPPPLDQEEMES
T8 sequence (P12931 whole entry): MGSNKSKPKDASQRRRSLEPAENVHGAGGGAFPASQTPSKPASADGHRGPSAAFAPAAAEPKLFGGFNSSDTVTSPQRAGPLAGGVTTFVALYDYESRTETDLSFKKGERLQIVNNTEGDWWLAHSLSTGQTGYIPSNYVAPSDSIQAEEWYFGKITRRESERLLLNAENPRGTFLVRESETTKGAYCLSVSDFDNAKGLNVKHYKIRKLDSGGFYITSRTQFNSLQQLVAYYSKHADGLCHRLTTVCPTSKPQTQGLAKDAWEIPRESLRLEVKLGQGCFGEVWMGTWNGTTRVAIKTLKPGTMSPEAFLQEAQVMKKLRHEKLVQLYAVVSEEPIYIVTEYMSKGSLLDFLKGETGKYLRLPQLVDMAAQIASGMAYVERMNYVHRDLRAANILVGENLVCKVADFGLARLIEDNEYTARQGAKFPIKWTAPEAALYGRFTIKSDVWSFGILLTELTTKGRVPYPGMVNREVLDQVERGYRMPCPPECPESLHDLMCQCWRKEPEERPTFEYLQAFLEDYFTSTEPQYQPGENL
T5 sequence (P42336 whole entry): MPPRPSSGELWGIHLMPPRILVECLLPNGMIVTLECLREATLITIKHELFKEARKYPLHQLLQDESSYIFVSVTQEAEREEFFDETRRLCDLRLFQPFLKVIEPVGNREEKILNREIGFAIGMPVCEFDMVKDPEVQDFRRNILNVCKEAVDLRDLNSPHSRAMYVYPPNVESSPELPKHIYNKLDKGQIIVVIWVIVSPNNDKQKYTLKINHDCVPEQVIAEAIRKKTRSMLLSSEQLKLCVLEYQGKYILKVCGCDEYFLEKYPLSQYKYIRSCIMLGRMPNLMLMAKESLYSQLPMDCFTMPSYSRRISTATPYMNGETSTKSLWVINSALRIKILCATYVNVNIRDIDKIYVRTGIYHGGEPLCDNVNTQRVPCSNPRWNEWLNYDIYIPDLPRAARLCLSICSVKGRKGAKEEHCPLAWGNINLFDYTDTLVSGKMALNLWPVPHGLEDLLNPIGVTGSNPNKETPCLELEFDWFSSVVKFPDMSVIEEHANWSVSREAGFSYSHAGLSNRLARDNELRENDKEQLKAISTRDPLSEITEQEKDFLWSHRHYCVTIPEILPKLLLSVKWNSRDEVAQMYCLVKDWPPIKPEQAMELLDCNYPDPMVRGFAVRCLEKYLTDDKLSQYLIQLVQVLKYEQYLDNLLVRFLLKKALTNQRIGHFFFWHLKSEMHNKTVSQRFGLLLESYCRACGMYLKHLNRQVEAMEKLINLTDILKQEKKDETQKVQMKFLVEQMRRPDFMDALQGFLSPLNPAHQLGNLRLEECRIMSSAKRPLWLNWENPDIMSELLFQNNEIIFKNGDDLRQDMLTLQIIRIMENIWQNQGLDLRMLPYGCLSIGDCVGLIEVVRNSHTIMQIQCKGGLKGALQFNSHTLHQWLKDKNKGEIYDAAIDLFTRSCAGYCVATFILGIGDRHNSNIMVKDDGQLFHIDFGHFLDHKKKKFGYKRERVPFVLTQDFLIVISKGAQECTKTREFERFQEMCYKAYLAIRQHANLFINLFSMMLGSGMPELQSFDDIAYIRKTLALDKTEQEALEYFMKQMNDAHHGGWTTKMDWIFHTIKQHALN

remaining activity at 20 µM (ABL1): 96.9% | remaining activity at 20 µM (CDK2/cyclin A1): 105% | remaining activity at 20 µM (CSK): 93% | remaining activity at 20 µM (EGFR): 99.8% | remaining activity at 20 µM (PI3K (p110a/p65a)): 110% | remaining activity at 20 µM (PKCa): 103% | remaining activity at 20 µM (c-Kit): 95.3% | remaining activity at 20 µM (c-Src): 113% | remaining activity at 20 µM (mTOR/FRAP1): 112% | remaining activity at 20 µM (p38a/MAPK14): 83.1%
Structure (SMILES): Cc1noc(C)c1C(=O)OCc1coc2ccccc2c1=O [Compound 5a, (4-Oxo-4H-1-benzopyran-3-yl)methyl 3,5-dimethylisoxazole-4-carboxylate]
kinase inhibitory activity (in words) [1]: inactive; also recorded: did not show protein tyrosine kinase inhibitory activity | induced apoptosis in MDA-MB-231 (MDA-MB-231 cells; 5 μM concentration, compared to untreated cells): 50.8% | Early Apoptosis (MDA-MB-231 cells; MDA-MB-231, 5 μM, 72 h): 47.52% | Late Apoptosis (MDA-MB-231 cells; MDA-MB-231, 5 μM, 72 h): 3.28%
